Results: patent US4812393A, “Fluorescent dyes and biological and analytical uses thereof” (priority 1986, dated 1989)

Legend:
[1] = Fluorescence emission maximum and fluorescence quantum efficiency of the dyes; format: physicochemical
Experimental: Representative novel dyes of this invention are listed in Table I below in reference to the illustrated structure above. Of these, Compound 4 is preferred for use in biological studies and assays because it can be used at a pH of 7 or less. In Table I, the "fluorescence quantum efficiency" was determined by procedures described by Birks in Standardization in Spectrophotometry and Luminescence Measurements, Mielenz et al (Eds.), Nat. Bureau of Standards Special Publication 466 (1977).

[2] = tested on: carboxyl esterase, Type I; test: Determination of an esterase enzyme by hydrolysis of the hydrolyzable substrate (fluorometer); format: biochemical; settings: final enzyme activity 48 I.U., HEPES pH 7.8, excitation 540 nm, emission 610 nm
Experimental: The hydrolyzable compound used is represented by the structure: [drawing 11]
A test solution was prepared from the following: the hydrolyzable substrate (50 μl of a solution of 0.1 mg/0.5 ml of methanol), 0.05 molar HEPES buffer (3 μl, pH 7.8) and the esterase enzyme carboxyl esterase, Type I (50 μl). A Control solution was similarly prepared by omitting the enzyme. Fluorescence of the released fluorescent dye was measured with a commercially available fluorometer when the enzyme was first added to the test solution and at various times thereafter (excitation at 540 nm and emission at 610 nm). The Control solution was similarly evaluated at the indicated times.

| Structure (SMILES) | Emission (λmax) ([1]; in methanol) [nm] | Fluorescence Quantum Efficiency ([1]; in methanol) | Emission (λmax) ([1]; in 5:1 water/methanol) [nm] | Fluorescence Quantum Efficiency ([1]; solvent in 5:1 water/methanol) | also measured |
| --- | --- | --- | --- | --- | --- |
| Cc1cc(O)cc2c1cc1c3c(cccc32)C(=O)C=C1 [Compound 1] | 542 | 0.4 | – | – | – |
| Cc1cc(O)cc2c1cc1c3c(cccc32)C(=O)C=C1 [Compound 2] | – | – | 635 | 0.18 | – |
| Cc1cc(O)c(Cl)c2c1cc1c3c(cccc32)C(=O)C=C1 [Compound 3] | 629 | 0.55 | – | – | – |
| Cc1cc(O)c(Cl)c2c1cc1c3c(cccc32)C(=O)C=C1 [Compound 4] | – | – | 628 | 0.42 | – |
| Cc1cc(OC(=O)N(C)c2ccccc2)c(Cl)c2c1cc1c3c(cccc32)C(=O)C=C1 [Compound 5] | – | – | 550 | 0.01 | – |
| Cc1cc(N2CCCC2)cc2c1cc1c3c(cccc32)C(=O)C=C1 [Compound 6] | 655 | 0.52 | – | – | – |
| CCCCOC(=O)c1cc(O)cc2c1cc1c3c(cccc32)C(=O)C=C1 [Compound 7] | 525 | 0.4 | – | – | – |
| CCCCOC(=O)c1cc(O)cc2c1cc1c3c(cccc32)C(=O)C=C1 [Compound 8] | – | – | 630 | 0.3 | – |
| CCCCOC(=O)c1cc(O)c(Cl)c2c1cc1c3c(cccc32)C(=O)C=C1 [Compound 9] | – | – | 625 | 0.56 | – |
| CC(=O)Oc1cc(C)c2cc3c4c(cccc4c2c1Cl)C(=O)C=C3 [Example 6] | – | – | – | – | Δ Relative Fluorescence (Minutes) 0 ([2]; 0 minutes): 8.1; Δ Relative Fluorescence (Minutes) 1 ([2]; 1 minute): 31.5; Δ Relative Fluorescence (Minutes) 2 ([2]; 2 minutes): 32.1; Δ Relative Fluorescence (Minutes) 5 ([2]; 5 minutes): 33.3 |
